Here are results for 45 molecules from ChEMBL document CHEMBL5441456, “ASAP - SARS-CoV-2 nsp3 macrodomain dose response” (2024).

Several values for one entry are separate records, joined by “and”; a condition that tells them apart may be missing. Identical values can stand only once.

In experiment [1] the target is T1, Replicase polyprotein 1ab (Severe acute respiratory syndrome coronavirus 2, UniProt P0DTD1). Put plainly: Functional biochemical assay to identify treatments for viral infectious disease that targets SARS-COV-2 nsp3 macrodomain, whereby the mechanism of action inhibits ADP-Ribose hydrolase activity. Utilizing an enzymatic assay to monitor the conversion of alpha-NAD+ to ADP-Ribose and nicotinamide. ADP-ribose was quantified by LC-MS/MS after precipitation of proteins.

The target in experiment [2] is T1, Replicase polyprotein 1ab. The experiment in a line: Functional biochemical assay to identify treatments for viral infectious disease that targets SARS-COV-2 nsp3 macrodomain, whereby the mechanism of action displaces an ADP-Ribose modified peptide from the binding site. Utilizing a time-resolved fluorescence method to measure binding by reading the emitted fluorescence intensity in two wavelengths.

`Cn1ncc(-c2cc3c(N[C@@H](c4ccc5c(n4)OCCO5)C(C)(C)C)ncnc3[nH]2)c1C#N`: the IC50 in experiment [1] is 133 nM and 191 nM and 235 nM; in experiment [2], 46 nM and 30 nM (2×) and 20 nM.

In the case of `Cc1nn(C)cc1-c1cc2c(N[C@H](c3ccc4c(c3)S(=O)(=O)CCC4)C(C)C)ncnc2[nH]1`, the IC50 in experiment [1] was 322 nM and 241 nM and 288 nM; in experiment [2], 28 nM (3×) and 14 nM and 32 nM and 13 nM and 24 nM and 36 nM and 12 nM and 11 nM. On to `CC(C)[C@@H](Nc1ncnc2[nH]c(C(=O)N[C@@H]3CCN(C)C3)cc12)c1ccc2c(c1)S(=O)(=O)CCC2`, for which the IC50 is 479 nM and 316 nM and 454 nM in experiment [1]; 65 nM and 66 nM and 72 nM and 58 nM in experiment [2].

`COc1ccc([C@H](Cc2nnn[nH]2)NC(=O)c2ncnc3[nH]ccc23)cc1`: the IC50 was 2340 nM and 1490 nM and 1610 nM in experiment [1]; 349 nM and 319 nM in experiment [2].

On to `CNCc1cc(-c2cc3c(N[C@@H](c4ccc5c(c4)S(=O)(=O)CCC5)C(C)C)ncnc3[nH]2)co1`, for which the IC50 was 289 nM and 396 nM and 533 nM in experiment [1]; 25 nM and 41 nM and 22 nM and 19 nM (2×) and 12 nM in experiment [2]. On to `CC(C)[C@@H](Nc1ncnc2[nH]ccc12)c1ccc2c(c1)NC(=O)CO2`, for which the IC50 in experiment [1] was 2960 nM; in experiment [2] it was 700 nM and 722 nM and 396 nM and 378 nM. For the molecule `C[C@H](C(=O)O)[C@@H](NC(=O)c1ncnc2[nH]ccc12)c1ccc(Br)cc1`, the IC50 in experiment [1] is 1340 nM and 1900 nM and 1800 nM; in experiment [2] it was 794 nM and 622 nM and 340 nM. Take `CNC(=O)Cn1cc(-c2cc3c(N[C@@H](c4ccc5c(c4)S(=O)(=O)CCC5)C(C)C)ncnc3[nH]2)cn1`: the IC50 in experiment [1] was 204 nM and 197 nM and 288 nM; in experiment [2] it was 35 nM and 19 nM and 30 nM and 18 nM and 16 nM and 15 nM and 10 nM. For the molecule `CC(C)[C@@H](Nc1ncnc2[nH]c(-c3cnn(C)c3C#N)cc12)c1ccc2c(n1)OCCO2`, the IC50 is 283 nM and 156 nM and 312 nM in experiment [1]; 68 nM and 74 nM and 40 nM and 29 nM and 59 nM and 67 nM in experiment [2].

With `CC(C)[C@H](Nc1ncnc2[nH]c(-c3cnn(C)c3C#N)cc12)c1ccc2c(n1)OCCO2`, the IC50 in experiment [1] is over 4000 nM; in experiment [2] it was 19300 nM and 19100 nM and 30800 nM and 19000 nM. Turning to `CC(C)[C@H](Nc1ncnc2[nH]ccc12)c1ccc2c(c1)S(=O)(=O)CCC2`, the IC50 in experiment [1] was 803 nM and 194 nM and 512 nM; in experiment [2] it was 93 nM and 138 nM and 85 nM. Consider `CC(C)[C@@H](Nc1ncnc2[nH]c(-c3cnn(C)c3)cc12)c1ccc2c(c1)S(=O)(=O)CCC2`, for which the 50% inhibitory concentration (IC50) in experiment [1] is 328 nM and 264 nM; in experiment [2] it was 36 nM and 54 nM and 19 nM and 34 nM (2×) and 17 nM and 29 nM and 27 nM and 35 nM and 15 nM. Consider `CC(C)(C)[C@@H](Nc1ncnc2[nH]c(-c3cnn(CC(N)=O)c3)cc12)c1ccc2c(n1)OCCO2`, for which the IC50 was 203 nM in experiment [1]; 82 nM and 64 nM and 54 nM in experiment [2]. On to `CNC(=O)c1c[nH]c2ncnc(N[C@H](c3ccc4c(c3)S(=O)(=O)CCC4)C(C)C)c12`, for which the IC50 in experiment [1] is 246 nM; in experiment [2] it was 120 nM and 110 nM.

`CC(C)[C@@H](Nc1cc(-n2ccnn2)ncn1)c1ccc2c(c1)S(=O)(=O)CCC2` came in with an IC50 in experiment [2] of over 99500 nM.

As for `CC(C)[C@H](Nc1ncnc2ccoc12)c1ccc2c(c1)S(=O)(=O)CCC2`, in experiment [2], the IC50 is over 99500 nM.

Turning to `CCNC(=O)c1cc2c(N[C@H](c3ccc4c(n3)S(=O)(=O)CCO4)C(C)C)ncnc2[nH]1`, in experiment [2], the IC50 came to 110 nM. Still for that read-out and setting: as for `CC(C)[C@H](Nc1ncncc1-c1nc[nH]n1)c1ccc2c(c1)S(=O)(=O)CCC2`, the figure is over 99500 nM; as for `CC(C)[C@H](Nc1ncncc1-n1ccnn1)c1ccc2c(c1)S(=O)(=O)CCC2`, over 99500 nM. As to `CC(C)[C@@H](Oc1ncnc2[nH]ccc12)c1ccc2c(c1)S(=O)(=O)CCC2`, the IC50 in experiment [2] was found to be 6050 nM. On the same count and under the same terms, as for `CC(C)[C@H](Nc1ncnc2c1CCN2)c1ccc2c(c1)S(=O)(=O)CCC2`, the figure is 52100 nM. For `CCNC(=O)c1cc2c(NC3(c4ccc5c(c4)S(=O)(=O)CCC5)CC3)ncnc2[nH]1`, the IC50 in experiment [2] came out at 24600 nM. Same read-out and setting: to `CC(C)[C@H](Nc1ncnc2c1NCCO2)c1ccc2c(c1)S(=O)(=O)CCC2` belongs over 99500 nM; to `CC(C)[C@@H](Nc1ncncc1N1CCOCC1)c1ccc2c(c1)S(=O)(=O)CCC2`, over 99500 nM; to `CC(C)[C@@H](Nc1ncnc2[nH]c(Br)cc12)c1ccc2c(c1)S(=O)(=O)CCC2`, 336 nM.

In experiment [2], `CC(C)[C@H](Nc1cc(-c2nc[nH]n2)ncn1)c1ccc2c(c1)S(=O)(=O)CCC2` showed an IC50 of over 99500 nM. On the same count and under the same terms, to `CC(C)[C@H](Nc1ncncc1-n1cncn1)c1ccc2c(c1)S(=O)(=O)CCC2` belongs over 99500 nM; to `CNCc1cc(-c2cc3c(N[C@H](c4ccc5c(c4)S(=O)(=O)CCO5)C(C)C)ncnc3[nH]2)co1`, 57 nM; to `COc1ncnc(N[C@H](c2ccc3c(c2)S(=O)(=O)CCC3)C(C)C)c1F`, over 99500 nM. On the same count and under the same terms, as for `CC(C)[C@H](Nc1ncnc2cn[nH]c12)c1ccc2c(c1)S(=O)(=O)CCC2`, the figure is over 99500 nM; as for `CC(C)[C@H](Nc1cc(NCC(F)(F)F)ncn1)c1ccc2c(c1)S(=O)(=O)CCC2`, over 99500 nM. Still for that read-out and setting: as for `CC(C)[C@H](Nc1cc(O)ncn1)c1ccc2c(c1)S(=O)(=O)CCC2`, the figure is over 99500 nM; as for `CC(C)[C@H](Nc1cc(-n2ccnn2)ncn1)c1ccc2c(c1)S(=O)(=O)CCC2`, over 99500 nM. `CC(C)[C@H](Nc1cc(-n2cncn2)ncn1)c1ccc2c(c1)S(=O)(=O)CCC2` displayed a 50% inhibitory concentration (IC50) in experiment [2] of over 99500 nM. On the same count and under the same terms, as for `CNc1ncnc(N[C@H](c2ccc3c(c2)S(=O)(=O)CCC3)C(C)C)c1Cl`, the figure is over 99500 nM.

The molecule `CCNC(=O)c1cc2c(N[C@H](c3ccc4c(n3)S(=O)(=O)CCC4)C(C)C)ncnc2[nH]1` showed an IC50 in experiment [2] of 119 nM. `CC(C)[C@H](Nc1ncnc2[nH]nnc12)c1ccc2c(c1)S(=O)(=O)CCC2` yielded an IC50 in experiment [2] of over 99500 nM.

`CC(C)[C@@H](Nc1cc(-n2nccn2)ncn1)c1ccc2c(c1)S(=O)(=O)CCC2` showed an IC50 in experiment [2] of over 99500 nM. Same read-out and setting: to `CC(C)[C@H](Nc1cc(-n2nccn2)ncn1)c1ccc2c(c1)S(=O)(=O)CCC2` belongs over 99500 nM; to `CC(C)[C@@H](Nc1cc(NCC(F)(F)F)ncn1)c1ccc2c(c1)S(=O)(=O)CCC2`, 2240 nM.

Regarding `CC(C)[C@@H](Oc1ncnc2[nH]ccc12)c1ccc2c(c1)OCCO2`, the IC50 in experiment [2] was over 99500 nM. Same read-out and setting: as for `CC(C)[C@@H](Nc1cc(N2CCNCC2)ncn1)c1ccc2c(c1)S(=O)(=O)CCC2`, the figure is over 99500 nM. As to `CC(C)[C@H](Nc1ncncc1N1CCNCC1)c1ccc2c(c1)S(=O)(=O)CCC2`, the IC50 in experiment [2] is over 99500 nM. The same measure, in the same setting: to `CC(C)[C@H](Nc1nccc2[nH]ccc12)c1ccc2c(c1)S(=O)(=O)CCC2` belongs over 99500 nM; to `CC(C)[C@H](Nc1ncnc2nccnc12)c1ccc2c(c1)S(=O)(=O)CCC2`, over 99500 nM.
